Experimental data reported in patent US8362005B2, “Monocyclic amide CGRP receptor antagonists” (Merk. Sharp & Dohme Corp., priority 2008, dated 2013).
Ends that are not written are not given here.

How the values were obtained:
facial blood flow [1] = conditions: rat, trigeminal ganglion stimulation; cited from earlier work
middle meningeal artery = conditions: rats, electrical stimulation of the dura mater, prior administration; cited from earlier work
facial blood flow [2] = conditions: marmoset, electrical stimulation of the trigeminal ganglion; cited from earlier work
[3] = test system: acute attacks of migraine; conditions: clinical trials; cited from earlier work
[4] = test system: headache induced by CGRP infusion; conditions: control group, clinical; cited from earlier work
[5] = target: T1, recombinant human CL receptor/RAMP1 (Homo sapiens, UniProt O60894+Q16602); experiment: Recombinant receptor binding assay (125I-hCGRP, membranes of HEK 293 cells); conditions: 10 pM 125I-hCGRP
T1 construct: expressed in transfected cells; membranes
T1 sequence (Q16602 23-461): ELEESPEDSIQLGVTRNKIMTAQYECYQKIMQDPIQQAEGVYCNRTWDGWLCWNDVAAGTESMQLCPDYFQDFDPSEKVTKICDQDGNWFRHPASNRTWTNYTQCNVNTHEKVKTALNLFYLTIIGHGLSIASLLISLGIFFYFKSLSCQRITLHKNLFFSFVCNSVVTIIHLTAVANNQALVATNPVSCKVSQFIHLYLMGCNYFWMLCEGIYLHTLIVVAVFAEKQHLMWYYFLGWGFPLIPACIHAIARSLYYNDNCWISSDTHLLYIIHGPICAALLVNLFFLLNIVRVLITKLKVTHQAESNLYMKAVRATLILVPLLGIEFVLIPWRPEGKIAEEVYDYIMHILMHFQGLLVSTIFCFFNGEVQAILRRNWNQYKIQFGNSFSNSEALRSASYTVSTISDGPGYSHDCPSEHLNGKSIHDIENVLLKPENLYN
T1 sequence (O60894 27-148): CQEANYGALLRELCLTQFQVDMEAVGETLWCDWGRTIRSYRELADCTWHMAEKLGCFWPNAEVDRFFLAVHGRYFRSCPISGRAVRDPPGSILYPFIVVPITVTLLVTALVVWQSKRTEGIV
Method: RECOMBINANT RECEPTOR: Human CL receptor (Genbank accession number L76380) was subcloned into the expression vector pIREShyg2 (BD Biosciences Clontech) as a 5′NheI and 3′ PmeI fragment. Human RAMP 1 (Genbank accession number AJ001014) was subcloned into the expression vector pIRESpuro2 (BD Biosciences Clontech) as a 5′NheI and 3′NotI fragment. HEK 293 cells (human embryonic kidney cells; ATCC #CRL-1573) were cultured in DMEM with 4.5 g/L glucose, 1 mM sodium pyruvate and 2 mM glutamine supplemented with 10% fetal bovine serum (FBS), 100 units/mL penicillin and 100 μg/mL streptomycin, and maintained at 37° C. and 95% humidity. Cells were subcultured by treatment with 0.25% trypsin with 0.1% EDTA in HBSS. Stable cell line generation was accomplished by co-transfecting 10 μg of DNA with 30 μg Lipofectamine 2000 (Invitrogen) in 75 cm^2 flasks. CL receptor and RAMP1 expression constructs were co-transfected in equal amounts. […]
[formula] Where Y is observed CPM bound, Ymax is total bound counts, Ymin is non specific bound counts, (Ymax−Ymin) is specific bound counts, % Imax is the maximum percent inhibition, % I min is the minimum percent inhibition, radiolabel is the probe, and the Kd is the apparent dissociation constant for the radioligand for the receptor as determined by Hot saturation experiments.

CGRP(8-37): a peptide CGRP antagonist; fragment of CGRP that lacks seven N-terminal amino acid residues (VTHRLAGLLSRSGGVVKNNFVPTNVGSKAF; ends and bridges not checked; UniProt P06881 90-119, looked up, fragment)
inhibition of increased facial blood flow (facial blood flow [1]): inhibited
block of the increase in diameter of the middle meningeal artery (middle meningeal artery): blocked

NCCCC[C@H](NC(=O)[C@@H](Cc1cc(Br)c(O)c(Br)c1)NC(=O)N1CCC(N2Cc3ccccc3NC2=O)CC1)C(=O)N1CCN(c2ccncc2)CC1 [BIBN4096BS]
block of the increase in facial blood flow (facial blood flow [2]): could be blocked
efficacy in treating acute attacks of migraine [3]: effective in treating acute attacks of migraine
prevention of headache induced by CGRP infusion [4]: able to prevent headache induced by CGRP infusion

O=C(Cn1c(-c2ccccc2)c(Cl)nc(N2CCCC2)c1=O)Nc1ccc2c(c1)CC1(C2)C(=O)Nc2ncccc21 (stereo not drawn) [Example 5, 2-(5-Chloro-2-oxo-6-phenyl-3-pyrrolidin-1-ylpyrazin-1(2H)-yl)-N-(2′,-oxo-1,1′,2′,3-tetrahydrospiro[indene-2,3′-pyrrolo[2,3-b]pyridin]-5-yl)acetamide]
Ki [5]: 130 nM
